{
  "source": "patent US20030158250A1",
  "about": "“Agents correcting gene expression regulatory error” (priority 2000, published 2003)",
  "key": {"HO1 protein": {"system": "HO1 protein", "test": "HO1 protein induction in RAW 264.7 cells (Western blot)", "assay_type": "cell-based", "set-up": "key to Intensity of Bands of HO1 Protein: those showing no bands are indicated by “−,”; the intensities of the bands are indicated by +−, +, ++ in the ascending order of the intensities of the bands; the intensities of the bands are indicated by +−, +, ++ in the ascending order of the intensities of the bands; the intensities of the bands are indicated by +−, +, ++ in the ascending order of the intensities of the bands", "conditions": "15 hours", "procedure": "RAW 264.7 cells (ATCC TIB 71) were suspended in a Dulbecco's modified Eagle's medium (manufactured by Bio Whittaker; 12-604F) containing 10% fetal bovine serum (manufactured by Gibco), so as to have a concentration of 3×10^5 cells/ml. The cell suspension was added to each well of a 6-well microtiter plate in a volume of 5 ml each. The cells were cultured at 37° C. in the presence of 5% CO2 gas overnight. To each well was added 50 μl of 4 mM, 2 mM or 1 mM DGE aqueous solution (each of final concentrations: 40 μM, 20 μM or 10 μM), and the cells were cultured for 15 hours. […] The cells were harvested by peeling off the cells from the plate with a scraper. The harvested cells were suspended in 0.1 M Tris-HCl buffer (pH 7.5) containing 0.05 mM pepstatin (manufactured by Sigma, P5318), 0.2 mM leupeptin (manufactured by Sigma, L2884), 1 mM phenylmethylsulfonyl fluoride (manufactured by nakalai tesque, 273-27), 10 mM disodium dihydrogenethylenediaminetetraacetate and 0.1% Triton X-100, and subjected to freezing and thawing once. Thereafter, the supernatant obtained by centrifugation was used as a protein fraction. The protein content in the protein fraction was assayed by Micro BCA Protein Assay Reagent (one manufactured by Pierce sold by Takara Shuzo Co., Ltd., P7411). Each of the resulting protein fraction samples was mixed with an equal volume of 0.125 M Tris-HCl buffer (pH 6.8) containing 4% sodium lauryl sulfate (SDS), 2% 2-mercaptoethanol,\n0.001% Bromophenol Blue and 20% glycerol, and the mixture was treated at 100° C. for 5 minutes. A mixture containing a protein in an amount of 10 μg or so was loaded on 12.5% SDS-polyacrylamide gel, and electrophoresed with a constant current of 20 mA. In a blotting buffer containing 48 mM Tris, 39 mM glycine, 20% methanol, 0.0375% SDS, the gel after the electrophoresis was transferred to a PDVF membrane (manufactured by Millipore Corporation, IPVHOOO 10) in accordance with the attached protocol, using transblot SD cell semi-drive blotting device (manufactured by BioRad), at a constant voltage of 15 V for 25 minutes. The transferred PVDF membrane was blocked overnight in a Block Ace (manufactured by DAINIPPON PHARMACEUTICAL CO., LTD., UK-B25) solution at 4° C. The blocked membrane was washed for 15 minutes thrice with phosphate-buffered physiological saline containing 0.1% Tween 20 under gentle shaking. Thereafter, the membrane was subjected to the reaction under gentle shaking in phosphate-buffered physiological saline containing 10% Block Ace with a 200 ng/ml anti-HOl antibody (N-19, manufactured by Santa Cruz, sc-7696) and 0.1% Tween 20 at room temperature for 1 hour, and was washed for 15 minutes thrice with phosphate-buffered physiological saline containing 0.1% Tween 20 under gentle shaking. Next, the membrane was subjected to the reaction under gentle shaking in phosphate-buffered physiological saline with 10% Block Ace with 0.1% peroxidase-conjugated rabbit anti-goat IgG (H+L) antibody (manufactured by Zymed, 61-1620) and 0.1% Tween 20 at room temperature for 1 hour, and was washed for 15 minutes five times with phosphate-buffered physiological saline containing 0.1% Tween 20 under gentle shaking. Subsequently, a PVDF membrane was stained by using Western blot Chemiluminescence Reagent Plus (one manufactured by NEN Life Science Products sold by Daiichikagaku, NEL103) in accordance with the attached protocol, and sensitized on an X-ray film (manufactured by Kodak, CAT 1651454). The sensitized film was developed with FPM800 (manufactured by Fuji Photo Film Co., Ltd.).\nAs a result, there could be confirmed a band ascribed to HO1 protein in the group with addition of DGE. […] In the table, + symbols were given in accordance with the intensity of the band for HO1 protein. In other words, in Table 3, those showing no bands are indicated by “−,” and the intensities of the bands are indicated by +−, +, ++ in the ascending order of the intensities of the bands."}, "interleukin-6 (IL-6)": {"system": "interleukin-6 (IL-6)", "test": "TPA-induced IL-6 production in peritoneal macrophage (ELISA)", "assay_type": "cell-based", "conditions": "mouse peritoneal macrophage, final concentrations 20 μM and 10 μM, 14 hours, IL-6 in culture supernatant by ELISA", "procedure": "Four milliliters of a 10% fetal bovine serum-containing RPMI 1640 medium (manufactured by Bio Whittaker, 12-702F) was intraperitoneally injected to ddy mouse (Nippon SLC, female, 7-weeks old), and the mouse was well massaged, and the medium was taken out to obtain peritoneal cells. The peritoneal cells were suspended in the 10% fetal bovine serum-containing RPMI 1640 medium so as to have a concentration of 10^6 cells/ml, and dispensed into 48-well microtiter plate in a volume of 500 μl each. The peritoneal cells were cultured at 37° C. for 2 hours in the presence of 5% CO2 gas. Thereafter, the culture supernatant was removed to give adherent cells to be used as peritoneal macrophage. To each well was freshly dispensed a Dulbecco's modified Eagle's medium (manufactured by Bio Whittaker; 12-917F) without phenol red containing 10% fetal bovine serum and 2 mM L-glutamine in a volume of 500 μl. […] The content of interleukin-6 (IL-6) in the culture supernatant was assayed by enzyme immuno-sandwich assay (ELISA: Matched antibody Pair SamplePak mouse IL-6, manufactured by Endogen). Here, the group with no addition of DGE and TPA aqueous solution (control) was set as a negative control, and the group with addition of TPA aqueous solution alone (control+TPA) was set as a positive control. In addition, all of the assays were carried out twice."}},
  "data": [
    {"smiles": "O=C1C=CC(CO)OC1O", "note": "[DGE, L-glycero-1,5-epoxy-1αβ,6-dihydroxy-cis-hex-3-en-2-one]", "values": [
      {"measurement": "induction action for HO production (band ascribed to HO1 protein)", "setting": "HO1 protein; DGE at 10 to 40 μM", "result": "DGE concentration-dependent"},
      {"measurement": "Intensity of Bands of HO1 Protein", "setting": "HO1 protein; final concentration 10 μM", "result": "+−"},
      {"measurement": "Intensity of Bands of HO1 Protein", "setting": "HO1 protein; final concentration 20 μM", "result": "+"},
      {"measurement": "Intensity of Bands of HO1 Protein", "setting": "HO1 protein; final concentration 40 μM", "result": "++"},
      {"measurement": "inhibition of TPA-induced IL-6 production", "setting": "interleukin-6 (IL-6)", "result": "inhibition of TPA-induced IL-6 production was found DGE-concentration dependently"}
    ]}
  ]
}
